Results as given in patent publication US11034650B2, “Compounds useful for treating a Mannheimia haemolytica or Histophilus somni infection” (Intervet Inc., priority 2016, dated 2021).
Converted amounts (≈) assume the structure as drawn.

Key:
Format in all cases: cell-based
[1] = system: Mannheimia haemolytica MH 6357 (M7/2, reference strain, cattle infection strain); test: MIC, broth-microdilution (CLSI VET01-A4), strain MH 6357; details: Mannheimia haemolytica strain MH 6357, broth-microdilution; unit assumed
In short: (§1)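 Doubling dilution series in trays; visual read, MIC = lowest conc. with no visible turbidity; interpretation per CLSI VET01-S3.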

[2] = system: Mannheimia haemolytica MH 13065 (XB0446-6003.9, BRD field isolate); test: MIC, broth-microdilution (CLSI VET01-A4), strain MH 13065; details: Mannheimia haemolytica strain MH 13065, broth-microdilution; unit assumed
In short: as §1

[3] = system: Mannheimia haemolytica MH 6374 (ATCC 33396, reference strain); test: MIC, broth-microdilution (CLSI VET01-A4), strain MH 6374; details: Mannheimia haemolytica strain MH 6374, broth-microdilution; unit assumed
In short: as §1

[4] = system: Mannheimia haemolytica MH 12587 (1071, BRD field isolate, macrolide-resistance: erm+, E+); test: MIC, broth-microdilution (CLSI VET01-A4), strain MH 12587; details: Mannheimia haemolytica strain MH 12587, broth-microdilution; unit assumed
In short: as §1

[5] = system: Pasteurella multocida PM 12080 (IV102277-0093, BRD field isolate); test: MIC, broth-microdilution (CLSI VET01-A4), strain PM 12080; details: Pasteurella multocida strain PM 12080, broth-microdilution; unit assumed
In short: as §1

[6] = system: Mannheimia haemolytica MH 10720 (154, BRD field isolate); test: MIC, broth-microdilution (CLSI VET01-A4), strain MH 10720; details: Mannheimia haemolytica strain MH 10720, broth-microdilution; unit assumed
In short: as §1

[7] = system: Mannheimia haemolytica MH 13093 (XB0472-6014.1, BRD field isolate); test: MIC, broth-microdilution (CLSI VET01-A4), strain MH 13093; details: Mannheimia haemolytica strain MH 13093, broth-microdilution; unit assumed
In short: as §1

[8] = system: Pasteurella multocida PM 10775 (080130003051, BRD field isolate); test: MIC, broth-microdilution (CLSI VET01-A4), strain PM 10775; details: Pasteurella multocida strain PM 10775, broth-microdilution; unit assumed
In short: as §1

[9] = system: Pasteurella multocida PM 6391 (ATCC 43137, reference strain); test: MIC, broth-microdilution (CLSI VET01-A4), strain PM 6391; details: Pasteurella multocida strain PM 6391, broth-microdilution; unit assumed
In short: as §1

[10] = system: Pasteurella multocida PM 6267 (P 2225 (L386), reference strain, mouse infection strain); test: MIC, broth-microdilution (CLSI VET01-A4), strain PM 6267; details: Pasteurella multocida strain PM 6267, broth-microdilution; unit assumed
In short: as §1

| MIC PM 12080 [5] [µg/mL] | MIC PM 10775 [8] [µg/mL] | MIC PM 6391 [9] [µg/mL] | MIC PM 6267 [10] [µg/mL] | SMILES | MIC MH 6357 [1] [µg/mL] | MIC MH 13065 [2] [µg/mL] | MIC MH 6374 [3] [µg/mL] | MIC MH 12587 [4] [µg/mL] | MIC MH 10720 [6] [µg/mL] | MIC MH 13093 [7] [µg/mL] |
| --- | --- | --- | --- | --- | --- | --- | --- | --- | --- | --- |
| 0.2 (≈ 0.402 µM) | ≤ 0.1 | 0.4 (≈ 0.804 µM) | ≤ 0.1 | CC(C)([C@H](NC(=O)c1ccc(C#Cc2ccc(CNC3CCC3)cc2)cc1)C(=O)NO)S(C)(=O)=O [Compound 263] | 6.3 (≈ 12.7 µM) | 3.1 (≈ 6.23 µM) | 3.1 (≈ 6.23 µM) | 6.3 (≈ 12.7 µM) | 0.8 (≈ 1.61 µM) | 3.1 (≈ 6.23 µM) |
| ≤ 0.1 | ≤ 0.1 | ≤ 0.1 | ≤ 0.1 | CC(C)[C@H](NC(=O)c1ccc(C#Cc2ccc(CNCc3nccs3)cc2)cc1)C(=O)NO [Compound 199] | 0.2 (≈ 0.432 µM) | 0.2 (≈ 0.432 µM) | 0.4 (≈ 0.865 µM) | 0.4 (≈ 0.865 µM) | ≤ 0.1 | 0.4 (≈ 0.865 µM) |
| 0.8 (≈ 1.88 µM) | ≤ 0.1 | 1.6 (≈ 3.76 µM) | 0.2 (≈ 0.47 µM) | COCCN(C)Cc1ccc(C#Cc2ccc(C(=O)N[C@@H](CO)C(=O)NO)cc2)cc1 [Compound 154] | 3.1 (≈ 7.29 µM) | 6.3 (≈ 14.8 µM) | 12.5 (≈ 29.4 µM) | 12.5 (≈ 29.4 µM) | 1.6 (≈ 3.76 µM) | 6.3 (≈ 14.8 µM) |
| 0.2 (≈ 0.449 µM) | ≤ 0.1 | 0.4 (≈ 0.898 µM) | ≤ 0.1 | CC(C)[C@H](NC(=O)c1ccc(C#Cc2ccc(CNCc3ccco3)cc2)cc1)C(=O)NO [Compound 170] | 0.2 (≈ 0.449 µM) | 0.4 (≈ 0.898 µM) | 0.4 (≈ 0.898 µM) | 0.4 (≈ 0.898 µM) | ≤ 0.1 | 0.4 (≈ 0.898 µM) |
| ≤ 0.1 | ≤ 0.1 | 0.2 (≈ 0.477 µM) | ≤ 0.1 | CC(C)[C@H](NC(=O)c1ccc(C#Cc2ccc(CNC3CCC3)cc2)cc1)C(=O)NO [Compound 210] | 1.6 (≈ 3.81 µM) | 1.6 (≈ 3.81 µM) | 3.1 (≈ 7.39 µM) | 6.3 (≈ 15 µM) | 0.8 (≈ 1.91 µM) | 3.1 (≈ 7.39 µM) |
| 0.2 (≈ 0.473 µM) | ≤ 0.1 | 0.4 (≈ 0.947 µM) | 0.4 (≈ 0.947 µM) | CC(C)(O)[C@H](NC(=O)c1ccc(C#Cc2ccc(CNC3CC3)nc2)cc1)C(=O)NO [Compound 324] | 0.4 (≈ 0.947 µM) | 0.8 (≈ 1.89 µM) | 0.8 (≈ 1.89 µM) | 1.6 (≈ 3.79 µM) | ≤ 0.1 | 1.6 (≈ 3.79 µM) |
| ≤ 0.1 | ≤ 0.1 | 0.2 (≈ 0.431 µM) | ≤ 0.1 | CC1CN(Cc2ccc(C#Cc3ccc(C(=O)N[C@H](C(=O)NO)C(C)C)cc3)cc2)CC(C)O1 (stereo partly shown) [Compound 165] | 6.3 (≈ 13.6 µM) | 12.5 (≈ 27 µM) | 12.5 (≈ 27 µM) | 25 (≈ 53.9 µM) | 3.1 (≈ 6.69 µM) | 12.5 (≈ 27 µM) |
| 0.4 (≈ 0.807 µM) | ≤ 0.1 | 0.4 (≈ 0.807 µM) | ≤ 0.1 | CSC(C)(C)[C@H](NC(=O)c1ccc(C#Cc2ccc(CNCC3CCCO3)cc2)cc1)C(=O)NO (stereo partly shown) [Compound 253] | 3.1 (≈ 6.25 µM) | 1.6 (≈ 3.23 µM) | 3.1 (≈ 6.25 µM) | 3.1 (≈ 6.25 µM) | 0.8 (≈ 1.61 µM) | 3.1 (≈ 6.25 µM) |
| 1.6 (≈ 3.48 µM) | ≤ 0.1 | 3.1 (≈ 6.75 µM) | 0.4 (≈ 0.87 µM) | CC[C@H](C)[C@H](NC(=O)c1ccc(C#Cc2ccc(CNCc3ncc[nH]3)cc2)cc1)C(=O)NO [Compound 184] | 12.5 (≈ 27.2 µM) | 6.3 (≈ 13.7 µM) | 6.3 (≈ 13.7 µM) | 12.5 (≈ 27.2 µM) | 0.8 (≈ 1.74 µM) | 6.3 (≈ 13.7 µM) |
| 0.2 (≈ 0.445 µM) | ≤ 0.1 | 0.2 (≈ 0.445 µM) | ≤ 0.1 | CC(C)[C@H](NC(=O)c1ccc(C#Cc2ccc(CNCC3CCCO3)cc2)cc1)C(=O)NO (stereo partly shown) [Compound 200] | 6.3 (≈ 14 µM) | 1.6 (≈ 3.56 µM) | 3.1 (≈ 6.9 µM) | 6.3 (≈ 14 µM) | 0.8 (≈ 1.78 µM) | 3.1 (≈ 6.9 µM) |
| 0.8 (≈ 1.88 µM) | ≤ 0.1 | 6.3 (≈ 14.8 µM) | 1.6 (≈ 3.76 µM) | COCCCNCc1ccc(C#Cc2ccc(C(=O)N[C@@H](CO)C(=O)NO)cc2)cc1 [Compound 153] | 12.5 (≈ 29.4 µM) | 12.5 (≈ 29.4 µM) | 25 (≈ 58.8 µM) | 25 (≈ 58.8 µM) | 6.3 (≈ 14.8 µM) | 25 (≈ 58.8 µM) |

Continued, compound first:

| SMILES | MIC PM 12080 [5] [µg/mL] | MIC PM 10775 [8] [µg/mL] | MIC PM 6391 [9] [µg/mL] | MIC PM 6267 [10] [µg/mL] | MIC MH 6357 [1] [µg/mL] | MIC MH 13065 [2] [µg/mL] | MIC MH 6374 [3] [µg/mL] | MIC MH 12587 [4] [µg/mL] | MIC MH 10720 [6] [µg/mL] | MIC MH 13093 [7] [µg/mL] |
| --- | --- | --- | --- | --- | --- | --- | --- | --- | --- | --- |
| CC(C)(O)[C@H](NC(=O)c1ccc(C#Cc2ccc(CNCc3nccs3)nc2)cc1)C(=O)NO [Compound 362] | 0.2 (≈ 0.417 µM) | ≤ 0.1 | 0.4 (≈ 0.834 µM) | 0.2 (≈ 0.417 µM) | 3.1 (≈ 6.46 µM) | 1.6 (≈ 3.34 µM) | 0.8 (≈ 1.67 µM) | 3.1 (≈ 6.46 µM) | 0.4 (≈ 0.834 µM) | 3.1 (≈ 6.46 µM) |
| COc1ccc(CNCc2ccc(C#Cc3ccc(C(=O)N[C@@H](C(C)=O)C(=O)NO)cc3)cc2)cc1 [Compound 401] | 0.8 (≈ 1.65 µM) | 1.6 (≈ 3.3 µM) | 0.2 (≈ 0.412 µM) | 6.3 (≈ 13 µM) | 1.6 (≈ 3.3 µM) | 1.6 (≈ 3.3 µM) | 1.6 (≈ 3.3 µM) | 0.4 (≈ 0.824 µM) | 3.1 (≈ 6.38 µM) | 1.6 (≈ 3.3 µM) |
| C=CCNCc1ccc(C#Cc2ccc(C(=O)N[C@H](C(=O)NO)C(C)(C)S(C)(=O)=O)cc2)cc1 [C.256] | ≤ 0.1 | ≤ 0.1 | ≤ 0.1 | ≤ 0.1 | 1.6 (≈ 3.31 µM) | 0.8 (≈ 1.65 µM) | 0.8 (≈ 1.65 µM) | 1.6 (≈ 3.31 µM) | ≤ 0.1 | 0.8 (≈ 1.65 µM) |
| Cc1cnc(CNCc2ccc(C#Cc3ccc(C(=O)N[C@H](C(=O)NO)C(C)(C)O)cc3)s2)o1 [Compound 299] | 0.4 (≈ 0.829 µM) | ≤ 0.1 | ≤ 0.1 | 0.4 (≈ 0.829 µM) | 0.2 (≈ 0.414 µM) | 0.4 (≈ 0.829 µM) | 0.4 (≈ 0.829 µM) | 0.8 (≈ 1.66 µM) | ≤ 0.1 | 0.4 (≈ 0.829 µM) |
| CC(C)(O)[C@H](NC(=O)c1ccc(C#Cc2ccc(CNCc3ccccn3)s2)cc1)C(=O)NO [Compound 297] | 0.2 (≈ 0.418 µM) | ≤ 0.1 | ≤ 0.1 | 0.4 (≈ 0.836 µM) | 0.2 (≈ 0.418 µM) | 0.4 (≈ 0.836 µM) | 0.4 (≈ 0.836 µM) | 0.8 (≈ 1.67 µM) | ≤ 0.1 | 0.4 (≈ 0.836 µM) |
| CC(=O)C(NC(=O)c1ccc(C#Cc2ccc(CNCc3cccs3)cc2)cc1)C(=O)NO (stereo not shown) [Compound 411] | 0.2 (≈ 0.433 µM) | 0.4 (≈ 0.867 µM) | ≤ 0.1 | 3.1 (≈ 6.72 µM) | 0.4 (≈ 0.867 µM) | 0.8 (≈ 1.73 µM) | 0.8 (≈ 1.73 µM) | 0.2 (≈ 0.433 µM) | 0.8 (≈ 1.73 µM) | 0.8 (≈ 1.73 µM) |
| CC(C)(O)[C@H](NC(=O)c1ccc(C#Cc2ccc(CN3CCOCC3)s2)cc1)C(=O)NO [Compound 293] | ≤ 0.1 | ≤ 0.1 | 0.2 (≈ 0.437 µM) | 1.6 (≈ 3.5 µM) | 0.4 (≈ 0.874 µM) | 0.4 (≈ 0.874 µM) | 0.8 (≈ 1.75 µM) | 0.8 (≈ 1.75 µM) | ≤ 0.1 | 0.8 (≈ 1.75 µM) |
| CSC(C)(C)[C@H](NC(=O)c1ccc(C#Cc2ccc(CNCc3ccccn3)cc2)cc1)C(=O)NO [Compound 249] | 0.4 (≈ 0.796 µM) | ≤ 0.1 | 0.8 (≈ 1.59 µM) | 0.2 (≈ 0.398 µM) | 0.8 (≈ 1.59 µM) | 0.8 (≈ 1.59 µM) | 1.6 (≈ 3.18 µM) | 1.6 (≈ 3.18 µM) | 0.2 (≈ 0.398 µM) | 0.8 (≈ 1.59 µM) |
| O=C(N[C@@H](CO)C(=O)NO)c1ccc(C#Cc2ccc(CNCc3cccs3)cc2)cc1 [Compound 160] | 0.2 (≈ 0.445 µM) | ≤ 0.1 | 0.4 (≈ 0.89 µM) | ≤ 0.1 | 0.8 (≈ 1.78 µM) | 1.6 (≈ 3.56 µM) | 0.8 (≈ 1.78 µM) | 3.1 (≈ 6.9 µM) | 0.4 (≈ 0.89 µM) | 3.1 (≈ 6.9 µM) |
| CC(C)([C@H](NC(=O)c1ccc(C#Cc2ccc(CNCc3ccccc3)s2)cc1)C(=O)NO)S(C)(=O)=O [Compound 315] | ≤ 0.1 | ≤ 0.1 | ≤ 0.1 | 0.2 (≈ 0.371 µM) | ≤ 0.1 | ≤ 0.1 | ≤ 0.1 | 0.4 (≈ 0.741 µM) | ≤ 0.1 | 0.4 (≈ 0.741 µM) |
| CC(C)(C(NC(=O)c1ccc(C#Cc2ccc(CNCc3ccncc3)cc2)cc1)C(=O)NO)[N+](=O)[O-] (stereo not shown) [Compound 278] | ≤ 0.1 | ≤ 0.1 | ≤ 0.1 | ≤ 0.1 | 0.4 (≈ 0.798 µM) | 0.4 (≈ 0.798 µM) | 0.4 (≈ 0.798 µM) | 0.8 (≈ 1.6 µM) | ≤ 0.1 | 0.4 (≈ 0.798 µM) |
